# In patent US7485651B2, “Compounds with activity on muscarinic receptors” (Acadia Pharmaceuticals, Inc., priority 1998, dated 2009):
# Key:
# m5 receptor = target: T1, m5 receptor (Homo sapiens, UniProt P08912); assay: R-SAT / NIH 3T3 cells transfected with m5 muscarinic receptor; type: cell-based; conditions: NIH3T3; m5; compound at 1.5 μM; maximum = response to 10 μM carbachol; read-out: Cellular response as a percentage of the maximum response of the cells
# T1 construct: expressed in transfected cells; host or cells: NIH 3T3 (ATCC CRL 1658)
# T1 sequence (P08912 1-532): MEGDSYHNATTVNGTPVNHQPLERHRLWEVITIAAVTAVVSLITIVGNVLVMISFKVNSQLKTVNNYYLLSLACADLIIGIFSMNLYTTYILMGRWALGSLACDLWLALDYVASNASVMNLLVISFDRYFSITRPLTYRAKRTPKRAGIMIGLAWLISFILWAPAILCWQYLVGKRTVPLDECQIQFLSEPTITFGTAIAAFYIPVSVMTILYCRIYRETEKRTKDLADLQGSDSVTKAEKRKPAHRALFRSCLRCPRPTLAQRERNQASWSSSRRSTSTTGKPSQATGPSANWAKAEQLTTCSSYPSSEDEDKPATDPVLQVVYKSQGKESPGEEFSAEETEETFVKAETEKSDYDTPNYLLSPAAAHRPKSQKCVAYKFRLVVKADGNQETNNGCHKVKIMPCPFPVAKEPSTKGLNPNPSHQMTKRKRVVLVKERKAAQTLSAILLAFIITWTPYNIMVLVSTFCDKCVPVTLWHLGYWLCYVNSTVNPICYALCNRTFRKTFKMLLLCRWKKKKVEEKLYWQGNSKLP
# Text: (§1) A particularly convenient functional assay system is the receptor selection and amplification assay disclosed in U.S. Pat. No. 5,707,798 describing a method of screening for bioactive compounds by utilizing the ability of cells transfected with receptor DNA, e.g. coding for the different muscarinic subtypes, to amplify in the presence of a ligand of the receptor. Cell amplification is detected as increased levels of a marker also expressed by the cells.
# (§2) Transfection of cells with muscarinic receptor DNAs (general procedure) NIH 3T3 cells (available from the American Type Culture Collection as ATCC CRL 1658) were grown at 37° C. in a humidified atmosphere (5% CO2) incubator in Dulbecco's modified Eagle's medium (DMEM) supplemented with 4.5 g/l glucose, 4 mM glutamine, 50 units/m1 penicillin, 50 units/m1 streptomycin (available from Advanced Biotechnologies, Inc., Gaithersburg, Md.) and 10% calf serum (available from Sigma, St. Louis, […].). The cells were treated with trypsin-EDTA, spun down and plated at 2×10^6 per 15 cm dish in 20 m1 of DMEM containing 10% calf serum.
# (§3) The m1-m5 muscarinic receptor subtypes were cloned substantially as described by Bonner et al., Science 237, 1987, p. 527, and Bonner et al., Neuron 1, 1988, p. 403. For the m2 and m4 receptors, the cells were co-transfected with DNA encoding a chimera between the Gq protein and the five carboxy-terminal amino acids of the Gi protein (the Gq-i5 construct is described by Conklin et al., Nature 363, 1993, p.274).
# (§4) On day one, the cells were transfected using the Superfect transfection reagent (available from Qiagen, Valencia, Calif.) in accordance with the manufacturer's instructions. Receptor DNA, β-gal DNA (pSI-β-galactosidase available from Promega, Madison, Wis.), chimeric Gq-i5 DNA for the m2 and m4 receptor subtype assays, and salmon sperm DNA (available from Sigma, St. Louis, […].) as filler to a total of 20 μg DNA was added per plate. Prior to addition to the plates, 60 μl Superfect was added to the DNA and mixed thoroughly by pipetting up and down several times. The mixture was incubated at room temperature for 10-15 minutes. The media were aspirated, and 12 ml fresh DMEM containing 10% calf serum and 50 units/m1 penicillin/streptomycin was added to the plates. The DNA-Superfect solution was mixed once more with a pipette and added to the plate which was swirled to distribute the DNA mixture evenly over the surface. The cells were incubated overnight at 37° C. and 5% CO2. After incubation, the media were aspirated and the plates were rinsed once with a 15 m1 volume of Hank's Buffered Saline. The plates were swirled to ensure thorough rinsing. 20 m1 fresh DMEM supplemented with 10% calf serum and 50 units/m1 penicillin/streptomycin was added to the plates. The cells were incubated for 24-48 hours until the plates were 100% confluent.
# (§5) Assay of NIH 3T3 cells transfected with muscarinic receptor subtypes (general procedure) DMEM containing 2% Cyto-SF3 was heated at 37° C. in a water bath under sterile conditions. Sterile working stock solutions of test compounds to be assayed were prepared by diluting the compounds in DMEM to 8× the final concentration for testing. The compound (carbachol) to be included in the assay as a positive control was also diluted in DMEM to 8× the final concentration. 50 μL of the DMEM containing 2% Cyto-SF3 was added to each well of 96-well microtiter plates under sterile conditions. Then, 16 of compound solutions were added to the top wells of the plates, and dilution of the solutions was performed by taking 16 μl of the compound solutions from the top wells and pipetting them into the next row of wells. This procedure was repeated with each subsequent row of wells, except that 50 μl medium alone was added to the baseline control wells (the wells that contain medium and cells, but not test compounds) and plate control wells (wells containing medium, but not test compounds and cells). […]
# m1 receptor = target: T2, m1 receptor (Homo sapiens, UniProt P11229); assay: R-SAT / NIH 3T3 cells transfected with m1 muscarinic receptor; type: cell-based; conditions: NIH3T3; m1; compound at 1.5 μM; maximum = response to 10 μM carbachol; read-out: Cellular response as a percentage of the maximum response of the cells
# T2 construct: expressed in transfected cells; host or cells: NIH 3T3 (ATCC CRL 1658)
# T2 sequence (P11229 1-460): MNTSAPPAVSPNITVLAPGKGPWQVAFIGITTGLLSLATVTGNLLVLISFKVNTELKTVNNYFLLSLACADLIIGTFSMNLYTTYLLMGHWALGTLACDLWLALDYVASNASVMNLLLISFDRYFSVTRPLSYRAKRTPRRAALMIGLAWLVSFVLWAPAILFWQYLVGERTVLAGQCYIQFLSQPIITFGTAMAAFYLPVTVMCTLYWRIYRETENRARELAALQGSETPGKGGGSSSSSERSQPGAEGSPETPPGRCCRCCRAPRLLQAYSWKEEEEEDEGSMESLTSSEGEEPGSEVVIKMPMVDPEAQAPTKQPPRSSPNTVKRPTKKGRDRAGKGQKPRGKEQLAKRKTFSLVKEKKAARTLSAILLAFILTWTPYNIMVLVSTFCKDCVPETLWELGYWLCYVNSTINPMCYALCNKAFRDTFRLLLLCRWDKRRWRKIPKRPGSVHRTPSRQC
# Experimental: Cell amplification is detected as increased levels of a marker also expressed by the cells.
# The cells were treated with trypsin-EDTA, spun down and plated at 2×10^6 per 15 cm dish in 20 m1 of DMEM containing 10% calf serum.
# as §4
# Assay of NIH 3T3 cells transfected with muscarinic receptor subtypes (general procedure) DMEM containing 2% Cyto-SF3 was heated at 37° C. in a water bath under sterile conditions. Sterile working stock solutions of test compounds to be assayed were prepared by diluting the compounds in DMEM to 8× the final concentration for testing. The compound (carbachol) to be included in the assay as a positive control was also diluted in DMEM to 8× the final concentration. 50 μL of the DMEM containing 2% Cyto-SF3 was added to each well of 96-well microtiter plates under sterile conditions. Then, 16 of compound solutions were added to the top wells of the plates, and dilution of the solutions was performed by taking 16 μl of the compound solutions from the top wells and pipetting them into the next row of wells. This procedure was repeated with each subsequent row of wells, except that 50 μl medium alone was added to the baseline control wells (the wells that contain medium and cells, but not test compounds) and plate control wells (wells containing medium, but not test compounds and cells). The plates were then placed in an incubator at 37° C. to equilibrate temperature and pH.
# When the cell cultures had reached 100% confluence, the medium was aspirated and each plate was rinsed with 15 m1 Hank's Buffered Saline (HBS). The cells were left in the incubator for about 10-15 minutes until the HBS had turned slightly yellow. The HBS was then aspirated and 1 m1 trypsin was added to each plate and swirled so as to completely cover the plates. The edges of the plates were gently rapped several times to loosen the cells. After the cells had been dislodged from the surface, 8 m1 DMEM containing 10% calf serum and 50 units/m1 penicillin and 50 units/m1 streptomycin was added to inhibit the trypsin. The plates were rinsed with this medium, and the cells were pipetted into a tube. The cells were centrifuged at 1000 rpm for 5-10 min. in an IEC Centra CL2 centrifuge (produced by Sorvall). Afterwards, the medium was carefully aspirated so as not to dislodge the cells. The cell pellet was suspended in 1600 μl DMEM containing 10% calf serum and 50 units/m1 penicillin and 50 units/m1 streptomycin, after which 20 m1 DMEM supplemented with 2% Cyto-SF3 was added. 50 μl aliquots of this cell suspension was added to the wells of the 96-well microtiter plates prepared above (except for the plate control wells).
# m3 receptor = target: T3, m3 receptor (Homo sapiens, UniProt P20309); assay: R-SAT / NIH 3T3 cells transfected with m3 muscarinic receptor; type: cell-based; conditions: NIH3T3; m3; compound at 1.5 μM; maximum = response to 10 μM carbachol; read-out: Cellular response as a percentage of the maximum response of the cells
# T3 construct: expressed in transfected cells; host or cells: NIH 3T3 (ATCC CRL 1658)
# Text: as §1, §2, §3, §4, §5
# [1] = human, in vivo; cited from earlier work
# T3 sequence (P20309 whole entry): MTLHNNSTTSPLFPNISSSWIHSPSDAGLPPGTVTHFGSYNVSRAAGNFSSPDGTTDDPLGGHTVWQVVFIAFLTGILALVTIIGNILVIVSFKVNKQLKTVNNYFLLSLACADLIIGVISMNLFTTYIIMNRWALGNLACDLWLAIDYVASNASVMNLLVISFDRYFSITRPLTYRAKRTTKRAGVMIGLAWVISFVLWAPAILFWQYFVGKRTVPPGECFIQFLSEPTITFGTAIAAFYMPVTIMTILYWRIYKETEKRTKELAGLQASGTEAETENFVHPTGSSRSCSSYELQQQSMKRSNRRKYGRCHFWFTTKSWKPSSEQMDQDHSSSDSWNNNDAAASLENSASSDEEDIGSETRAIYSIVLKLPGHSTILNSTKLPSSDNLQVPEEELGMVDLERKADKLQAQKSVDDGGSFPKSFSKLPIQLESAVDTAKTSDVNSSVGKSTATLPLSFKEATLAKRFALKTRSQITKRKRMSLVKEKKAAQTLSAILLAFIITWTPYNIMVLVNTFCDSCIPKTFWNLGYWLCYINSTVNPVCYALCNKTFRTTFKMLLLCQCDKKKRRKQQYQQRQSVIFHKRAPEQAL
Emax at 1.5 µM (m5 receptor),Emax at 1.5 µM (m1 receptor),Emax at 1.5 µM (m3 receptor),Compound,patients with elevated liver transaminases (hepatotoxicity) [1],patients with gastrointestinal side effects [1]
2%,72%,13%,"CCCCC1CCN(CCCC(=O)c2cccc(C)c2C)CC1 [D, 4-n-Butyl-1-[4-(2,3-dimethylphenyl)-4-oxo-1-butyl]piperidine]",–,–
-3%,42%,9%,"CCCCC1CCN(CCCC(=O)c2ccc(C)cc2C)CC1 [E, 4-n-Butyl-1-[4-(2,4-dimethylphenyl)-4-oxo-1-butyl]piperidine]",–,–
5%,65%,9%,"CCCCC1CCN(CCCC(=O)c2ccccc2OC)CC1 [F, 4-n-Butyl-1-[4-(2-methoxyphenyl)-4-oxo1-butyl]piperidine]",–,–
7%,66%,16%,"CCCCC1CCN(CCCC(=O)c2ccccc2)CC1 [G, 4-n-Butyl-1-[4-phenyl-4-oxo-1-butyl]piperidine]",–,–

# Further lines, the molecule ahead of its results:
Compound,Emax at 1.5 µM (m5 receptor),Emax at 1.5 µM (m1 receptor),Emax at 1.5 µM (m3 receptor),patients with elevated liver transaminases (hepatotoxicity) [1],patients with gastrointestinal side effects [1]
"CCCCC1CCN(CCCC(=O)c2ccccc2OCC)CC1 [B, 4-n-Butyl-1-[4-(2ethoxyphenyl)-4-oxo-1-butyl]piperidine]",-6%,76%,7%,–,–
"CCCCC1CCN(CCCC(=O)c2ccccc2O)CC1 [C, 4-n-Butyl-1-[4-(2-hydroxyphenyl)-4-oxo-1-butyl]piperidine]",0%,91%,4%,–,–
"Nc1c2c(nc3ccccc13)CCCC2 [Tacrine, 9-amino-1,2,3,4-tetrahydroacridine]",–,–,–,about 30%,about a third
